Test results published in PMC5298231, “The Malaria Parasite's Lactate Transporter PfFNT Is the Target of Antiplasmodial Compounds Identified in Whole Cell Phenotypic Screens” (PLoS Pathogens, 2017).
Peptide text beside a SMILES is read from it.

System: erythrocytes infected with 3D7 trophozoites
Format: cell-based, Plasmodium falciparum
Conditions: sheet Ratio; for Ratio of metabolite abundance, Exp1_1hr: Exp1, 1hr; for Ratio of metabolite abundance, Exp1_3hr: Exp1, 3hr; for Ratio of metabolite abundance, Exp1_6hr: Exp1, 6hr; for Ratio of metabolite abundance, Exp2_1hr: Exp2, 1hr; for Ratio of metabolite abundance, Exp2_3hr: Exp2, 3hr; for Ratio of metabolite abundance, Exp2_6hr: Exp2, 6hr; for Ratio of metabolite abundance, Exp3_1hr: Exp3, 1hr; for Ratio of metabolite abundance, Exp3_3hr: Exp3, 3hr; for Ratio of metabolite abundance, Exp3_6hr: Exp3, 6hr

Compound	Ratio of metabolite abundance, Exp1_1hr	Ratio of metabolite abundance, Exp1_3hr	Ratio of metabolite abundance, Exp1_6hr	Ratio of metabolite abundance, Exp2_1hr	Ratio of metabolite abundance, Exp2_3hr	Ratio of metabolite abundance, Exp2_6hr	Ratio of metabolite abundance, Exp3_1hr	Ratio of metabolite abundance, Exp3_3hr	Ratio of metabolite abundance, Exp3_6hr
Cc1cc2nc3c(=O)[nH]c(=O)nc-3n(C[C@H](O)[C@H](O)[C@H](O)COP(=O)(O)OP(=O)(O)OC[C@H]3O[C@@H](n4cnc5c(N)ncnc54)[C@H](O)[C@@H]3O)c2cc1C [FAD]	0.999	0.6842	0.7003	0.9752	0.8156	0.7377	0.855	0.7422	0.5377
CC(C)[C@H](NC(=O)[C@@H]1CCCN1)C(=O)N[C@@H](CCC(N)=O)C(=O)N[C@@H](C)C(=O)O [PVQA] (H-PVQA-OH)	0.5661	0.3168	0.8691	0.7152	0.5356	0.8856	0.5318	0.3152	1.03
NC(=O)N[C@@H](CC(=O)O)C(=O)O [N-Carbamoyl-L-aspartate]	0.3523	0.4866	0.4355	0.4532	0.2641	0.4319	0.3568	0.3426	0.2976
CC(C)C[C@H](NC(=O)[C@@H](NC(=O)[C@H](C)N)[C@@H](C)O)C(=O)N[C@@H](CO)C(=O)O [ATLS] (H-ATLS-OH)	1.05	0.6654	0.8386	1.031	0.8993	0.9335	1.05	1.026	0.9156
Nc1ccn([C@@H]2O[C@H](COP(=O)(O)OP(=O)(O)OP(=O)(O)O)[C@@H](O)[C@H]2O)c(=O)n1 [CTP]	0.8417	0.6895	0.6055	0.8987	0.9317	0.7353	0.7379	0.8137	0.693
NC(=O)c1ccc[n+]([C@@H]2O[C@H](COP(=O)([O-])OP(=O)(O)OC[C@H]3O[C@@H](n4cnc5c(N)ncnc54)[C@H](O)[C@@H]3O)[C@@H](O)[C@H]2O)c1 [NAD+]	1.033	0.9084	1.09	0.9571	1.088	1.117	1.081	1.082	1.084
CC(C)C[C@H](NC(=O)[C@@H](N)Cc1cnc[nH]1)C(=O)N[C@@H](CC(=O)O)C(=O)O [HLD] (H-His-Leu-Asp-OH)	0.6785	0.3938	1.496	0.9181	0.5663	1.359	0.7775	0.6588	1.57
Cc1cn([C@H]2C[C@H](O)[C@@H](COP(=O)(O)OP(=O)(O)OP(=O)(O)O)O2)c(=O)[nH]c1=O [dTTP]	1.097	0.6301	0.6957	1.256	1.272	1.427	1.1105	1.053	1.149
CC(=O)N[C@@H](CCC(=O)O)C(=O)O [N-Acetyl-glutamate]	1.252	0.8243	0.4492	1.417	0.7877	0.6113	0.5549	0.2844	0.3771
O=C(CO)COP(=O)(O)O [Glycerone phosphate]	2.2	2.096	0.8912	1.254	1.043	0.7007	1.243	1.057	0.7275
Cc1cc2nc3c(=O)[nH]c(=O)nc-3n(C[C@H](O)[C@H](O)[C@H](O)COP(=O)(O)O)c2cc1C [FMN]	0.8812	0.6056	0.6532	1.341	1.123	0.8423	0.5112	0.5214	0.5073
N[C@@H](COP(=O)(O)O)C(=O)O [3-Phospho-serine]	0.7768	0.7478	0.6073	1.092	0.7496	0.7836	0.6617	0.7708	0.5594
CC(=O)N[C@@H](C)C(=O)O [Acetyl-L-alanine]	1.844	0.6703	0.7764	1.062	0.5861	0.7816	0.7593	1.204	0.7219
O=c1ccn([C@@H]2O[C@H](COP(=O)(O)OP(=O)(O)O)[C@@H](O)[C@H]2O)c(=O)[nH]1 [UDP]	0.7834	0.4305	0.5124	1.213	0.7051	0.7343	0.7602	0.7434	0.9366
NC(=O)c1ccc[n+]([C@@H]2O[C@H](COP(=O)([O-])OP(=O)(O)OC[C@H]3O[C@@H](n4cnc5c(N)ncnc54)[C@H](OP(=O)(O)O)[C@@H]3O)[C@@H](O)[C@H]2O)c1 [NADP+]	0.7131	0.6937	0.7662	1.042	0.9729	0.8073	0.7811	0.7388	0.8166
O=c1ccn([C@@H]2O[C@H](COP(=O)(O)O)[C@@H](O)[C@H]2O)c(=O)[nH]1 [UMP]	0.9634	0.9303	0.812	0.4945	0.6514	1.0366	0.9925	0.9562	0.9948
Nc1ccn([C@H]2C[C@H](O)[C@@H](COP(=O)(O)OP(=O)(O)O)O2)c(=O)n1 [dCDP]	1.169	1.109	1.155	1.1851	1.387	1.852	1.354	1.295	1.494
Nc1ncnc2c1ncn2[C@H]1C[C@H](O)[C@@H](COP(=O)(O)OP(=O)(O)OP(=O)(O)O)O1 [dATP]	0.9995	0.8537	0.9613	1.009	1.102	1.077	1.104	0.9965	1.005
O=c1ccn([C@H]2C[C@H](O)[C@@H](COP(=O)(O)O)O2)c(=O)[nH]1 [dUMP]	3.473	5.178	2.302	3.524	1.859	4.376	1.122	1.775	0.8871
